Reference: article PMC6857671 (Chemical Science, 2019)

Test system: HeLa cells
Test: Confocal microscopic analysis of cellular location of DOX and 36
Assay type: cell-based
Details: 10 µM, 3 h, 37 °C, fluorescence confocal microscopy

COc1cccc2c1C(=O)c1c(O)c3c(c(O)c1C2=O)C[C@@](O)(C(=O)CO)C[C@@H]3O[C@H]1C[C@H](N)[C@H](O)[C@H](C)O1 [DOX, Doxorubicin]
cellular location of DOX fluorescence, no irradiation: efficiently transported to the nucleus
